# Data published in patent US20200385396A1, “Compond for treatment or prevention of obesity or diseases related to obesity, and application thereof” (SHANGHAI INSTITUTES FOR BIOLOGICAL SCIENCES, CHINESE …, priority 2017, published 2020).
# Legend:
# mice = test: Inhibition of food intake in mice by HLY72/HLY78 derivatives; assay type: in vivo, mouse; details: for inhibition of food intake in mice / activity compared with HLY72: intraperitoneal, 75 umol/kg; for activity compared with HLY72 / activity relative to Hly72 / effective concentration (EC50) relative to HLY72: food intake; for activity relative to Hly72 / effective concentration (EC50) relative to HLY72: compounds 7.5 umol/kg vs Hly72 75 umol/kg; for effective concentration (EC50) relative to HLY72: 5-6 mice per group
# Experimental: All compounds are injected intraperitoneally with a concentration of 75 umol/kg (20 mg/kg of Hly72 equals 75 umol/kg). One-way ANOVA statistical analysis, *: P<0.05, **: P⋅<0.01, ***: P<0.001.
# All compounds are injected intraperitoneally at a concentration of 75 umol/kg (20 mg/kg of Hly72 equals 75 umol/kg). One-way ANOVA statistics Analysis, *: P<0.05, **: P⋅<0.01, ***: P<0.001.
# Intraperitoneal injection of Hly72 at a concentration of 75 umol/kg (20 mg/kg of Hly72 equals 75 umol/kg), Hgsy-98, Hybj-12a, Hybj-13a are all 7.5 umol/kg. One-way ANOVA statistical analysis, *: P<0.05, **: P⋅<0.01, ***: P<0.001.
# The next question we are very concerned about is whether HLY78 has similar functions to NUCB2 protein in mice. Up to now, the most classic function reported for NUCB2 protein is to reduce the food intake of mice at night. Therefore, the experiment was designed: 20 mg/kg of HLY78 was injected intraperitoneally within two hours before turning off the lights at night, and then the food intake of the mice was measured at different time points (0-3 h, 0-6 h, 0-12 h, 0-24 h). […] During the three days of the adaptive injection period before HLY78 injection, both groups of mice were injected with DMSO. On the day of injection of HLY78 and the two days before the injection of DMSO, the body weight of the two groups of mice is also the same (FIG. 2b). […]
# Experimental methods were the same as in Examples 2 and 4.
# Three compounds of Hgsy-98, Hybj-12a and Hybj-13a were selected for re-experiment (5-6 mice per group).
# Solubility (Table C) = assay type: physicochemical; details: solvent named in Table C
Solubility (Solubility (Table C)),Structure (SMILES),inhibition of food intake in mice (mice),also measured
DMSO,CCc1cccc2c1N(C)Cc1cc(OC)ccc1-2 [Hcj12],obvious effects,–
DMSO,CCn1c(=O)c2cc(OC)c(OC)cc2c2cccc(C3OCCO3)c21 [Hgsy-69],–,–
DMSO,CCn1c(=O)c2cc(OC)ccc2c2cccc(C(C)O)c21 (centres unmarked) [Hgsy-62],–,–
DMSO,Cc1cccc2c1N(C)Cc1cc(OCc3cc4cc(Cl)ccc4s3)ccc1-2 [Hcj194-d],obvious effects,–
DMSO,CCN1Cc2cc(O)c(OC)cc2-c2cccc(C)c21 [Hcj44-d],–,–
DMSO,Cc1cccc2c1N(C)Cc1cc(O)ccc1-2 [Hcj16],obvious effects,–
DMSO,COc1cc2c(cc1OC)-c1cccc(OC)c1N(C)C2 [Hgsy-60],–,–
DMSO,C=Cc1cccc2c1N(CCCCCCCCCC)Cc1cc3c(cc1-2)OCO3 [Hyj-12a],obvious effects,activity compared with HLY72 (mice): significantly better; activity relative to Hly72 (mice): 30-40 times; effective concentration (EC50) relative to HLY72 (mice): one tenth
DMSO,COc1ccc2c(c1)CN(C)c1c(C)cccc1-2 [Hcj15],–,–
DMSO,C/C=C/c1cccc2c1N(C)Cc1cc(OC)c(OC)cc1-2 [Hgsy-78],obvious effects,–
–,C=Cc1cccc2c1N(C)Cc1cc(OCCCC)c(OCCCC)cc1-2 [Hybj-3a],obvious effects,–
DMSO,CCCCn1c(=O)c2cc(OC)c(OC)cc2c2cccc(CO)c21 [Hgsy-43],–,–
DMSO,CCCn1c(=O)c2cc(OC)ccc2c2cccc(C(C)O)c21 (centres unmarked) [Hgsy-64],–,–
DMSO,COc1cc2c(=O)n(C)c3c(C(C)=O)cccc3c2cc1OC [Hgsy-57],–,–
DMSO,C=CC(O)c1cccc2c3ccc(OC)cc3c(=O)n(CC)c12 (centres unmarked) [Hgsy-3],–,–
DMSO,C=Cc1cccc2c3ccc(OC)cc3c(=O)n(CC)c12 [Hgsy-67],–,–
DMSO,COc1cc2c(cc1OC)-c1cccc(C(C)O)c1N(C)C2 (centres unmarked) [Hgsy-59],–,–
DMSO,Cc1cccc2c1N(C)Cc1cc(OCc3cc(C)n(C)n3)ccc1-2 [Hcj221d],–,–
DMSO,CCCCN1Cc2cc(OC)c(OC)cc2-c2cccc(C(C)O)c21 (centres unmarked) [Hgsy-55],–,–
DMSO,C/C=C/c1cccc2c3cc(OC)c(OC)cc3c(=O)n(C)c12 [Hgsy-75],–,–
DMSO,C=Cc1cccc2c1N(CCCCCCCCCCCCCCCCCC)Cc1cc3c(cc1-2)OCO3 [Hyb-17a],obvious effects,activity compared with HLY72 (mice): significantly better
DMSO,C#CCOc1cc2c(cc1OCC#C)-c1cccc(C)c1N(CC)C2 [Hcj46-d],–,–
DMSO,C/C=C/c1cccc2c3ccc(OC)cc3c(=O)n(C)c12 [Hgsy-89],–,–
DMSO,C=CC(O)c1cccc2c3cc(OC)c(OC)cc3c(=O)n(CC)c12 (centres unmarked) [Hgsy-25],–,–
DMSO,C=Cc1cccc2c1N(CCCCCCCCCCCC)Cc1cc3c(cc1-2)OCO3 [Hybj-13a],obvious effects,activity compared with HLY72 (mice): significantly better; activity relative to Hly72 (mice): about 10 times; effective concentration (EC50) relative to HLY72 (mice): one tenth

Solubility (Solubility (Table C)),Structure (SMILES),inhibition of food intake in mice (mice),also measured
DMSO,C=Cc1cccc2c1N(C)Cc1cc(OC)c(OC)cc1-2 [Hybj-1a],obvious effects,–
DMSO,CCN1Cc2cc(OC)c(OC)cc2-c2cccc(COC(C)=O)c21 [Hgsy-47],–,–
DMSO,C#CCOc1ccc2c(c1)CN(C)c1c(C)cccc1-2 [Hcj16d-a],–,–
DMSO,CCCCn1c(=O)c2cc(OC)c(OC)cc2c2cccc(C(C)O)c21 (centres unmarked) [Hgsy-53],–,–
DMSO,CCn1c(=O)c2cc(OC)ccc2c2cccc(OC)c21 [Hgsy-32],–,–
DMSO,CCn1c(=O)c2cc(OC)ccc2c2cccc(CO)c21 [Hgsy-31],–,–
DMSO,CCCN1Cc2cc(OC)ccc2-c2cccc(C(C)O)c21 (centres unmarked) [Hgsy-66],–,–
DMSO,C=Cc1cccc2c3cc(OC)c(OC)cc3c(=O)n(C)c12 [Hgsy-58],–,–
DMSO,COc1cc2c(=O)n(C)c3c(OC)cccc3c2cc1OC [Hgsy-35],obvious effects,–
DMSO,C/C=C/c1cccc2c3ccc(OC)cc3c(=O)n(CCCC)c12 [Hgsy-97],–,–
DMSO,COc1cc2c(=O)n(C)c3c(C(C)O)cccc3c2cc1OC (centres unmarked) [Hgsy-56],–,–
DMSO,CCN1Cc2cc(OC)c(OC)cc2-c2cccc(CO)c21 [Hgsy-48],–,–
–,C=Cc1cccc2c1N(C)Cc1cc(OCC)c(OCC)cc1-2 [Hybj-2a],obvious effects,–
DMSO,C/C=C/c1cccc2c1N(C)Cc1cc(OC)ccc1-2 [Hgsy-92-1],obvious effects,–
DMSO,CCCCn1c(=O)c2cc(OC)c(OC)cc2c2cccc(C=O)c21 [Hgsy-50],obvious effects,activity compared with HLY72 (mice): significantly better
DMSO,CCN1Cc2cc(O)ccc2-c2cccc(C)c21 [Hcj36],–,–
DMSO,CCn1c(=O)c2cc(OC)c(OC)cc2c2cccc(C=O)c21 [Hgsy-51],–,–
DMSO,C/C=C/c1cccc2c1N(CCCC)Cc1cc(OC)ccc1-2 [Hgsy-98],–,activity compared with HLY72 (mice): significantly better; activity relative to Hly72 (mice): about 10 times; effective concentration (EC50) relative to HLY72 (mice): one tenth
DMSO,C=Cc1cccc2c1N(CCCCCC)Cc1cc3c(cc1-2)OCO3 [Hybj-9a],obvious effects,–
DMSO,C/C=C/c1cccc2c3cc(OC)c(OC)cc3c(=O)n(CCCC)c12 [Hgsy-80],obvious effects,activity compared with HLY72 (mice): significantly better
DMSO,COc1cc2c(cc1OC)-c1cccc(C)c1NC2 [Hcj92-a],–,–
DMSO,CCn1c(=O)c2cc(OC)c(OC)cc2c2cccc(CO)c21 [Hgsy-36],obvious effects,–
DMSO,C/C=C/c1cccc2c1N(CCCC)Cc1cc(OC)c(OC)cc1-2 [Hgsy-86],obvious effects,–
DMSO,C=Cc1cccc2c3ccc(OC)cc3c(=O)n(CCC)c12 [Hgsy-68],–,–
DMSO,CCCCN1Cc2cc(OC)c(OC)cc2-c2cccc(CO)c21 [Hgsy-44],–,–
